{
  "source": "PubChem BioAssay AID651890",
  "about": "(Broad Institute, 2012)",
  "system": "T. cruzi Tulahuen amastigotes in L-6 cells, CPRG absorbance",
  "experiment": "T. cruzi amastigote growth inhibition, dose response, Tulahuen strain, L-6 host cells, dry powder (AID 651890)",
  "data": [
    {"smiles": "C[C@@H]1CN([C@@H](C)CO)C(=O)c2cccc(NC(=O)c3ccncc3)c2O[C@H]1CN(C)Cc1ccc(Oc2ccccc2)cc1", "values": [
      {"measurement": "IC50", "value": 39, "unit": "nM"}
    ]}
  ]
}
